Measured values reported in ChEMBL document CHEMBL4482317, “Phosphatidylcholine transfer protein inhibitors” (2017).
Activity calls are given as the source filed them. The rule behind the calls is not given here.

Legend:
[1] = biological target: T1, Phosphatidylcholine transfer protein (Homo sapiens) (UniProt Q9UKL6); experiment: Inhibition of PC-TP in human hepatocytes assessed as enhancement of insulin signaling by measuring p-AMPK-alpha T172 levels at 0.05 to 0.1 uM incubated for 60 mins by immunoblot analysis; format: cell-based
T1 sequence (whole entry): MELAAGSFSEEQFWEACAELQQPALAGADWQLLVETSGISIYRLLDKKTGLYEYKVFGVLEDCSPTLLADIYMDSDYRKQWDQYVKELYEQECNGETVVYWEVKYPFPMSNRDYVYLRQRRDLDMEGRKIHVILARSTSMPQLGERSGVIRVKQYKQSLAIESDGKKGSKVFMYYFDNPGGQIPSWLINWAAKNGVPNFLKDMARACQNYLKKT

[2] = biological target: T1, Phosphatidylcholine transfer protein (Homo sapiens); experiment: Inhibition of PC-TP in human hepatocytes assessed as enhancement of insulin signaling by measuring p-S6K T389 levels at 0.05 to 0.1 uM incubated for 60 mins by immunoblot analysis; format: cell-based
[3] = biological target: T1, Phosphatidylcholine transfer protein (Homo sapiens); experiment: Inhibition of PC-TP in human hepatocytes assessed as enhancement of insulin signaling by measuring p-AKT S473 levels at 0.05 to 0.1 uM incubated for 60 mins by immunoblot analysis; format: cell-based
[4] = biological target: T1, Phosphatidylcholine transfer protein (Homo sapiens); experiment: Inhibition of PC-TP in human hepatocytes assessed as enhancement of insulin signaling by measuring p-GSK-3beta S9 levels at 0.05 to 0.1 uM incubated for 60 mins by immunoblot analysis; format: cell-based
[5] = biological target: T1, Phosphatidylcholine transfer protein (Homo sapiens); experiment: Binding affinity to N-terminal His-tagged human PC-TP expressed in Escherichia coli assessed as relative binding constant K(rel) at 5 to 75 uM in presence of TCNQ by fluorescent pyrene-labeled phosphatidylcholine based displacement assay relative to control
[6] = biological target: T1, Phosphatidylcholine transfer protein (Homo sapiens); experiment: Binding affinity to N-terminal His-tagged human PC-TP expressed in Escherichia coli at 5 to 75 uM in presence of TCNQ by fluorescent pyrene-labeled phosphatidylcholine based displacement assay
[7] = biological target: T2, Phosphatidylcholine transfer protein (Homo sapiens, UniProt Q9UKL6); experiment: Inhibition of N-terminal His-tagged human PC-TP expressed in Escherichia coli using NBD-PC and donor and acceptor small unilamellar vesicles by fluorescence quench assay
T2 sequence (Q9UKL6 whole entry): T1 sequence (whole entry)

Row | Structure (SMILES) | inhibition [1] | inhibition [2] | inhibition [3] | inhibition [4] | Ratio [5] | Activity [6] | IC50 [7]
1 | O=C(Nc1cc(Cl)cc(Cl)c1)C(Sc1cccc[n+]1[O-])c1ccccc1 (stereo unspecified) | Active | Active | Active | Active | – | – | –
2 | Cc1cc(C)nc(NS(=O)(=O)c2ccc(NC(=O)NC(=O)c3ccc(Cl)cc3Cl)cc2)n1 | Active | Active | Active | Active | 1.1 | Dose-dependent effect | –
3 | Cc1ccc(NC(=O)C(Sc2cccc[n+]2[O-])c2ccccc2)cc1Cl (stereo unspecified) | – | – | – | – | – | – | 100 µM
